Data reported in article PMC8667898, “Topo II inhibition and DNA intercalation by new phthalazine-based derivatives as potent anticancer agents: design, synthesis, anti-proliferative, docking, and in vivo studies” (Journal of Enzyme Inhibition and Medicinal Chemistry, 2021).
“And” between values parts separate entries of the source, which are not always exact repeats. Identical values can stand only once.

Columns and labels:
[1] = tested on: Solid Ehrlich Carcinoma (SEC); experiment: In vivo antitumor activity against Solid Ehrlich Carcinoma; set-up: species or system Swiss albino mice; conditions: SEC-bearing mice, 5 mg/kg BW I.P.
Experimental: To examine the in vivo anticancer activity of compound 9d, adult female Swiss albino mice (30 mice) inoculated with I.P. injection of Solid Ehrlich Carcinoma (SEC) tumour cell lines in a volume of 0.2 ml physiological saline contains 1 × 10^6 viable cells for 24 h.
These mice were randomly divided into four groups (7 mice/group). […] Bodyweight and survival were recorded daily until the 24th day in both treated and control groups. At the end of the experiment, the blood of each group was collected under light anaesthesia for the estimation of hematological and biochemical assays. The anaesthetised animals were then sacrificed to evaluate of the antitumor activity and to conduct hematological, biochemical, and histopathological assays, Figure 3.
Adult female Swiss albino mice purchased from Theodor Bilharzia Research Institute, Giza, Egypt, with an average bodyweight of (18–23) g were used. Mice were housed under constant conditions of 12 h light/dark cycle in a […], with free access to standard laboratory mice food and water. All procedures related to care and maintenance of the animals were performed according to the international guiding principles for animal research and approved by the Faculty of Science, Suez Canal University bioethics and animal ethics committee (Approval number REC-07–2021).
Solid Ehrlich carcinoma (SEC) was purchased from the National Cancer Institute (Cairo University, Egypt). The tumour cell line was proliferated in mice through serial intraperitoneal (I.P.) transplantation of a volume of 0.2 ml physiological saline contains 1 × 10^6 viable cells for 24 h. SEC cells were collected 7 days after I.P. implantation. The harvested cells were diluted with saline to obtain a concentration of 5 × 10^6 viable SEC cells/mL. A volume of 0.2 ml saline contains 1 × 10^6 SEC cells that were I.P. implanted into each normal mouse. SEC cells (1 × 10^6 tumour cells/mouse) were implanted subcutaneously into the right thigh of the hind limb.
(§1) The experimental animals were randomly divided into four groups. Group 1 served as the normal saline control (5 ml/kg B.Wt., I.P.). Group 2 served as the SEC control (1 × 10^6 cells/mouse). Group 3 served as the compound-treated group (5 mg/kg B.Wt., I.P.). […] Bodyweight and survival were recorded daily until the 24th day in both treated and control groups. At the end of the experiment, the blood of each group was collected under light anaesthesia to the estimate of hematological and biochemical assays. The anaesthetised animals were then sacrificed for evaluation of the antitumor activity and histopathological examination.
It includes tumour volume, weight, and tumour inhibition ratio (TIR%). Time interval measurements of tumour volume using digital Vernier calliper (Tricle Brand, Shanghai, China). Measure tumour length and width using a clipper and then calculate tumour volume using formulations V = (L × W × W)/2, where V is tumour volume, W is tumour width, L is tumour length. While TIR% was calculated according to the following equation Tumor volume (Control)−Tumor volume (treated)/Tumor volume (control)× 100.

Calf thymus DNA = experiment: DNA intercalation assay (DNA/methyl green colorimetric assay); type: binding; conditions: three independent experiments
Experimental: The data represented the mean of three independent experiments in triplicate and were expressed as means ± SD. […]
4.2.2. DNA intercalation assay (DNA/methyl green colorimetric assay)
Affinity of some compounds for DNA-binding was examined in vitro using DNA/methyl green assay using doxorubicin as a positive control. In this test, a mixture of methyl green (20 mg) and Calf thymus DNA (10 mg) (Sigma– Aldrich) were suspended in 0.05 M TrisHCl buffer (100 mL, pH 7.5) containing 7.5 mM MgSO4. This mixture was stirred continuously for 24 h at 37 °C. Then, ethanolic solution of the test compounds was pitted into the wells of a 96-well microtiter tray at a concentration of 10, 100 and 1000 µM. The excess solvent was removed from each well under vacuum, with subsequent addition of 200 µL of the DNA/methyl green solution. The test samples were incubated for 24 h in dark at ambient temperature. After that, absorbance of each sample was determined at 642.5–645 nm. In this test, the methyl green dye reversibly binds to DNA to form persistent colored complex of DNA/methyl green. This color still stables at neutral pH. When the DNA intercalators were added, the methyl green was displaced from DNA with addition of H2O molecule to the dye resulting in formation of the colorless carbinol leading to a decrease in spectrophotometric absorbance. ΔA value (the difference between DNA/methyl green complex and free cabinol) provides the simplest means for detecting the DNA-binding affinity and relative binding strength. IC50′s were determined by linear regression of data plotted on a semi -log scale and the data were compared with doxorubicin as standard DNA intercalator . […]

[2] = Hematological and biochemical blood assays in SEC-bearing mice; type: in vivo, Swiss albino mice; conditions: 5 mg/kg BW, Mean ± SEM (n = 7), 5 mg/kg
Experimental: At the end of the experiment, animals from different groups were sacrificed, and blood samples were collected for hematological parameters, including Hb, RBC’s, and WBC’s levels, and serum for determination of liver enzymes ALT, AST levels, and proteins.
as §1
At the end of the experiment, animals from different groups were sacrificed, and blood samples were collected for hematological parameters including, Hb, RBC’s, and WBC’s levels, and serum for determination of liver enzymes ALT, AST levels, and proteins. Complete blood count (CBC) was investigated using the Abbott CELL-DYN®1800 automated haematology analyser (USA) using ready-made kits (Abbott Laboratories, Abbott Park, IL, USA). Activities of aspartate aminotransferase (AST) and alanine aminotransferase (ALT) were evaluated using commercial kits (ELITech clinical systems, France). Serum albumin level was determined by kit purchased from STANBIO Company (USA). Protein content was determined by colorimetric method using ready-made kits produced by Instrumentation Laboratory SpA, Inova diagnostics, Milano, Italy.

IC50 (Calf thymus DNA): 26.2 ± 1.14 µM
Albumin [2]: 6.25 g/dL
Hb [2]: 8.2 g/dL
RBCs count [2]: 5.37 ×10^6/µL and 5.37 ± 0.37 ×10^6/µL
Total Protein [2]: 8.04 g/dL
WBCs count [2]: 3720 µL⁻¹
Compound: CCCc1nnc2c3ccccc3c(NN=Cc3ccc([N+](=O)[O-])cc3)nn12 [Compound 9d, 6-[2–(4-Nitrobenzylidene)hydrazineyl]-3-propyl-[1,2, 4]triazolo[3,4-a]phthalazine]
tumour volume [1]: 19 mm^3
reduction of the increase in solid tumour mass ([1]; compared to SEC control): 63.4%
solid tumour mass ([1]; SEC control 194 mg): 71 mg
tumour inhibition ratio (TIR) % ([1]; from tumour volume, compared to control): 64.5%
ALT [2]: 42.9 U/L
AST [2]: 55.6 U/L
